# Measurements taken from US9862684B2, “Modulation of K2P channels” (The Regents of the University of California, priority 2013, dated 2018).
# Key:
# Assay type in all cases: cell-based, Murine
# K2P2.1 (TREK-1) = target: T1, K2P2.1 (TREK-1) (Mus musculus, UniProt P97438); assay: Whole cell patch clamp of HEK-293T cells expressing K2P2.1 (TREK-1)
# T1 construct: expressed in transfected cells; host or cells: Xenopus oocytes (cRNA injection, pGEMHE/pMO)
# T1 sequence (P97438 1-411 isoform P97438-2): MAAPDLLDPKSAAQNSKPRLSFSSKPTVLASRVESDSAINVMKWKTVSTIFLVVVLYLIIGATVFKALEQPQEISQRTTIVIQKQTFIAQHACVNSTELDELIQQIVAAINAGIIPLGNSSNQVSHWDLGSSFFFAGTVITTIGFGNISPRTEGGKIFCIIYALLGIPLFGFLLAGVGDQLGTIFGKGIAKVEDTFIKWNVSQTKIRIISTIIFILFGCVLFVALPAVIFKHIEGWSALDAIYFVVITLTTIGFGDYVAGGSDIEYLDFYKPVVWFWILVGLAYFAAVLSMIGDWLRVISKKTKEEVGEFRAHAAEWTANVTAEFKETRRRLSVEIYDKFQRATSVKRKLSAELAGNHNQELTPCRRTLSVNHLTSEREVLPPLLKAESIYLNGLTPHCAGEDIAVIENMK
# Experimental: (§1) Murine K2P channels were cloned into pGEMHE/pMO {Bagriantsev, 2011}, IRES-GFP (Invitrogen), or pYES2-MET25 (high copy 2μ, URA3) {Minor, 1999} for expression in oocytes, HEK-293T cells, and yeast, respectively, using standard molecular biology procedures, and verified by DNA sequencing.
# (§2) Two-electrode voltage clamp recordings were performed from defolliculated stage V-VI Xenopus oocytes 24-48 hours after injection with 0.015-6.0 ng cRNA, using microelectrodes (0.3-3.0 MΩ) filled with 3M KCl. Data was acquired using the GeneClamp 500B (MDS Analytical Technologies) amplifier controlled by the pClamp software (Molecular Devices), and digitized at 1 kHz using Digidata 1332A (MDS Analytical Technologies). Recording solutions (mM): 2K (96 NaCl, 2 KCl, 1.8 CaCl2, 2 MgCl2), 90K (90 KCl, 8 NaCl, 1.8 CaCl2, 2 MgCl2), were buffered 5 mM HEPES pH 7.4. For K2P recordings, currents we elicited by a 1 second long ramp from −150 to +50 mV from a holding potential of −80 mV (2K), or −100 to +50 mV from a holding potential of 0 mV (90K). For KCNQ2 recordings, currents were elicited by a step protocol from −120 to 60 mV, in 20 mV increments, from a holding potential of −80 mV. Patch-clamp recordings from HEK-293T cells were performed using microelectrodes (2-3 MΩ) filled with 1M KCl. Data was acquired using the Axopatch 200B amplifier controlled by pClamp software, and digitized at 1 kHz using Digidata 1332A. Recording solutions (mM): intracellular (145 KCl, 5 EGTA, 3 MgCl2,) extracellular (150 NaCl, 5 KCl, 3 MgCl2, 1 CaCl2) were buffered with 5 mM HEPES pH 7.2 and 7.4, respectively. Currents were elicited by a 1 second long ramp from −150 to +50 mV from a holding potential of −80 mV. Data were fitted with a modified Hill's equation: I=Imin+(Imax−Imin)/(1+10^((Log EC50−Log [C])*H)), where Imax and Imin are maximal and minimal current values, respectively, EC50 is a half-maximal effective concentration of the compound, and H is the Hill coefficient.
# K2P9.1 (TASK-3) = target: T2, K2P9.1 (TASK-3) (Mus musculus, UniProt Q3LS21); assay: Two-electrode voltage clamp, Xenopus oocytes expressing K2P9.1 (TASK-3)
# T2 construct: expressed in transfected cells; host or cells: Xenopus oocytes
# T2 sequence (Q3LS21 whole entry): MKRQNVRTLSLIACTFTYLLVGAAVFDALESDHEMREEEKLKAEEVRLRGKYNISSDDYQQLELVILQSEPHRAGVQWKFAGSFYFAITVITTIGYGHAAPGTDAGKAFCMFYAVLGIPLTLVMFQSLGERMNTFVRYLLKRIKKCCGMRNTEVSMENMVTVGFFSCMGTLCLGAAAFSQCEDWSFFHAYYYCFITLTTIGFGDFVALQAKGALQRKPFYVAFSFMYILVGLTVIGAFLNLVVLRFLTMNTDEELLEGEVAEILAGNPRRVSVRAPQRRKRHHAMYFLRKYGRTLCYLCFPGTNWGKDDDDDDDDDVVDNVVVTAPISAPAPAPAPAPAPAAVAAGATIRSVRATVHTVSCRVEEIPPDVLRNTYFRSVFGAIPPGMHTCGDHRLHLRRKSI
# Experimental: (§3) FIG. 7 ML67-33 is a selective activator of heat- and mechanosensitive K2P channels. a-f, Exemplar I-V curves showing the effect of ML67-33 on a, K2P10.1 (TREK-2), b, K2P4.1 (TRAAK), c, K2P3.1 (TASK-1), d, K2P9.1 (TASK-3), e, K2P5.1 (TASK-2), and f, K2P18.1 (TRESK) measured in Xenopus oocytes in 2 mM [K^+]o pH 7.4. Currents were elicited by a voltage ramp from −150 to 50 mV, from a holding potential of −80 mV. g, Quantification of the effect of ML67-33 on the indicated channels. Data (mean±s.e., n≧6, N≧2) was normalized to basal channel activity and fitted to the Hill equation. […] Error bars indicate s.e., n≧6, N≧2.
# as §1
# as §2, with “Recording solutions (mM): intracellular (145 KCl, 5 EGTA, 3 MgCl2,) extracellular (150 NaCl, 5 KCl, 3 MgCl2, 1 CaCl2) were buffered with 5 mM HEPES pH 7.2 and 7.4, respectively. Currents were elicited by a 1 second long ramp from −150 to +50 mV from a holding potential of −80 mV. Data were fitted with a modified Hill's equation: I=Imin+(Imax−Imin)/(1+10^((Log EC50−Log [C])*H)), where Imax and Imin are maximal and minimal current values, respectively, EC50 is a half-maximal effective concentration of the compound, and H is the Hill coefficient.” left out
# K2P5.1 (TASK-2) = target: T3, K2P5.1 (TASK-2) (Mus musculus, UniProt F6V9U5); assay: Two-electrode voltage clamp, Xenopus oocytes expressing K2P5.1 (TASK-2)
# T3 construct: expressed in transfected cells; host or cells: Xenopus oocytes
# T3 sequence (F6V9U5 1-502): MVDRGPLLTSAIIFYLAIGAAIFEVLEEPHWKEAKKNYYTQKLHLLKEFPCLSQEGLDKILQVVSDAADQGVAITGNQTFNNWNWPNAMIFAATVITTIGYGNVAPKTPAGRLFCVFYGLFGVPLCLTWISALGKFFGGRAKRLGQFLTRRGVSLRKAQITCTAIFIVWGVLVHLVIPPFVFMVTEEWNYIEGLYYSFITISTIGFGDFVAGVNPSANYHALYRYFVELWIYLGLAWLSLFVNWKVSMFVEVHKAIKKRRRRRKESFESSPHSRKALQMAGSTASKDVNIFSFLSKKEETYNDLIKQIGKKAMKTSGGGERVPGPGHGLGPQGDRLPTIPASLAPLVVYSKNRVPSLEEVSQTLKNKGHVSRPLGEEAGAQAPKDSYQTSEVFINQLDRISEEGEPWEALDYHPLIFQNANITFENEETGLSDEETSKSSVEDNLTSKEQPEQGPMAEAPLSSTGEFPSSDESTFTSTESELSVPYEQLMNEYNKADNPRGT
# Experimental: as §3, §1
# Two-electrode voltage clamp recordings were performed from defolliculated stage V-VI Xenopus oocytes 24-48 hours after injection with 0.015-6.0 ng cRNA, using microelectrodes (0.3-3.0 MΩ) filled with 3M KCl. Data was acquired using the GeneClamp 500B (MDS Analytical Technologies) amplifier controlled by the pClamp software (Molecular Devices), and digitized at 1 kHz using Digidata 1332A (MDS Analytical Technologies). […]
compound,measurement,setting,value
"CC1(C)c2cc(Cl)ccc2N(CCc2nnn[nH]2)c2ccc(Cl)cc21 [ML67-33, 2,7-dichloro-9,9-dimethyl-10-[2-(1H-tetrazol-5-yl)ethyl]acridine]",Emax (fold),"K2P2.1 (TREK-1); HEK-293T cells, whole cell patch clamp, at 100 μM per FIG. 4 legend",11.4±1.1 fold
same,EC50,"K2P2.1 (TREK-1); HEK-293T cells, whole cell patch clamp, marked * in Table 1",9.7 ± 1.2 µM
same,time of half-maximal activation (t1/2act),"K2P2.1 (TREK-1); whole-cell, HEK-293T, 0 mV",4.1 ± 0.5 s
same,time of return to baseline following washout (t1/2wash),"K2P2.1 (TREK-1); whole-cell, HEK-293T, 0 mV",3.9 ± 0.5 s
same,functional effect (in words),K2P9.1 (TASK-3); applied at 100 μM,little or no functional effects
same,Emax at 100 μM,K2P9.1 (TASK-3); at 100 μM (FIG. 7 legend),2.0±0.1
same,Emax (fold) at 150 μM,K2P9.1 (TASK-3); at 150 μM,2.1 ± 0.4 at 150 μM fold
same,functional effect (in words),K2P5.1 (TASK-2); applied at 100 μM,little or no functional effects
same,Emax (fold),"K2P5.1 (TASK-2); at 100 μM (FIG. 7 legend), ** in Table 1",1.7±0.3 fold
